Test results published in patent publication US4740233A, “Substituted 1,2,4-triazolo[1,5-a]-pyrimidine-2-sulfonamides and compositions and methods of controlling undesired vegetation and suppressing the nitrification of ammonium nitrogen in soil” (The Dow Chemical Company, priority 1986, dated 1988).

Columns and labels:
[1] = tested on: cotton; test: Postemergent control of plant species; format: in vivo, Gossypium spp.; conditions: Gossypium hirsutum, post-emergence, 336 h, read-out: percent postemergent control
Outline: (§1)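 Growth reduction versus untreated plants of each species, scored about two weeks after spraying, defines control here. Test emulsions contained compound in acetone diluted 1:1 into water bearing 0.1% surfactant; plants were treated at the 2-4 leaf stage in the greenhouse.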

[2] = tested on: rape; test: Postemergent control of plant species; format: in vivo, Brassica napus; conditions: Brassica napus, post-emergence, 336 h, read-out: percent postemergent control
Outline: as §1

[3] = tested on: soybean; test: Postemergent control of plant species; format: in vivo, Glycine max.; conditions: Glycine max, post-emergence, 336 h, read-out: percent postemergent control
Outline: as §1

[4] = tested on: sugar beet; test: Postemergent control of plant species; format: in vivo, Beta saccharifera; conditions: Beta vulgaris, post-emergence, 336 h, read-out: percent postemergent control
Outline: as §1

[5] = tested on: cocklebur; test: Postemergent control of plant species; format: in vivo, Xanthium spp.; conditions: Xanthium strumarium, post-emergence, 336 h, read-out: percent postemergent control
Procedure: In representative operations, each compound to be utilized in a series of tests is dissolved in acetone to one-half of the final volume (twice the final concentration) to be used and the acetone solution in each case is admixed with an equal volume of water containing 0.1 percent by weight of surface active material. The compositions, generally in the nature of an emulsion, were employed to spray separate respective plant species which had been grown to a 2-4 leaf stage in soil of good nutrient content in a greenhouse. The various beds were positioned side by side and exposed to substantially identical conditions of temperature and light. Each bed was maintained so as to prevent any interaction with test compounds in different seed beds. Other plants were left untreated to serve as controls. After treatment, the plants were maintained for about two weeks under greenhouse conditions conducive for good plant growth and watered as necessary. Control refers to the reduction in growth compared to the observed results of the same untreated species.

[6] = tested on: jimsonweed; test: Postemergent control of plant species; format: in vivo, Datura stramonium; conditions: Datura stramonium, post-emergence, 336 h, read-out: percent postemergent control
Outline: as §1

[7] = tested on: annual morning glory; test: Postemergent control of plant species; format: in vivo, Ipomoea spp.; conditions: Ipomoea, post-emergence, 336 h, read-out: percent postemergent control
Outline: as §1

[8] = tested on: pigweed; test: Postemergent control of plant species; format: in vivo, Amaranthus spp.; conditions: Amaranthus retroflexus, post-emergence, 336 h, read-out: percent postemergent control
Outline: as §1

[9] = tested on: velvetleaf; test: Postemergent control of plant species; format: in vivo, Abutilon theophrasti; conditions: Abutilon theophrasti, post-emergence, 336 h, read-out: percent postemergent control
Outline: as §1

[10] = tested on: corn; test: Postemergent control of plant species; format: in vivo, Zea mays; conditions: Zea mays, post-emergence, 336 h, read-out: percent postemergent control
Outline: as §1

[11] = tested on: rice; test: Postemergent control of plant species; format: in vivo, Oryza sativa; conditions: Oryza sativa, post-emergence, 336 h, read-out: percent postemergent control
Outline: as §1

[12] = tested on: sorghum; test: Postemergent control of plant species; format: in vivo, Sorghum vulgare; conditions: Sorghum, post-emergence, 336 h, read-out: percent postemergent control
Outline: as §1

[13] = tested on: wheat; test: Postemergent control of plant species; format: in vivo, Triticum aestivum; conditions: Triticum aestivum, post-emergence, 336 h, read-out: percent postemergent control
Outline: as §1

[14] = tested on: barnyardgrass; test: Postemergent control of plant species; format: in vivo, Echinochloa crusgalli; conditions: Echinochloa crus-galli, post-emergence, 336 h, read-out: percent postemergent control
Outline: as §1

[15] = tested on: crabgrass; test: Postemergent control of plant species; format: in vivo, Digitaria spp.; conditions: Digitaria sanguinalis, post-emergence, 336 h, read-out: percent postemergent control
Outline: as §1

[16] = tested on: yellow foxtail; test: Postemergent control of plant species; format: in vivo, Setaria lutescens; conditions: Setaria, post-emergence, 336 h, read-out: percent postemergent control
Outline: as §1

[17] = tested on: johnson grass; test: Postemergent control of plant species; format: in vivo, Sorghum halepense; conditions: Sorghum halepense, post-emergence, 336 h, read-out: percent postemergent control
Outline: as §1

[18] = tested on: wild oats; test: Postemergent control of plant species; format: in vivo, Avena fatua; conditions: Avena fatua, post-emergence, 336 h, read-out: percent postemergent control
Outline: as §1

[19] = tested on: yellow nutsedge; test: Postemergent control of plant species; format: in vivo, Cyperus esculentus; conditions: Cyperus, post-emergence, 336 h, read-out: percent postemergent control
Outline: as §1

[20] = tested on: cotton; test: Preemergent control of plant species; format: in vivo, Gossypium spp.; conditions: Gossypium hirsutum, pre-emergence, 336 h; 0.25 lb/acre; read-out: percent preemergent control
Outline: (§2)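 Seeds planted in good agricultural soil beds; active ingredients then applied to the bed surface as aqueous emulsion at listed rates. Beds kept two weeks in greenhouse with watering. Control scored against water-treated beds.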

[21] = tested on: rape; test: Preemergent control of plant species; format: in vivo, Brassica napus; conditions: Brassica napus, pre-emergence, 336 h; 0.25 lb/acre; read-out: percent preemergent control
Outline: as §2

[22] = tested on: soybean; test: Preemergent control of plant species; format: in vivo, Glycine max.; conditions: Glycine max, pre-emergence, 336 h; 0.25 lb/acre; read-out: percent preemergent control
Outline: as §2

[23] = tested on: sugar beet; test: Preemergent control of plant species; format: in vivo, Beta saccharifera; conditions: Beta vulgaris, pre-emergence, 336 h; 0.25 lb/acre; read-out: percent preemergent control
Outline: as §2

[24] = tested on: jimsonweed; test: Preemergent control of plant species; format: in vivo, Datura stramonium; conditions: Datura stramonium, pre-emergence, 336 h; 0.25 lb/acre; read-out: percent preemergent control
Outline: as §2

[25] = tested on: annual morning glory; test: Preemergent control of plant species; format: in vivo, Ipomoea spp.; conditions: Ipomoea, pre-emergence, 336 h; 0.25 lb/acre; read-out: percent preemergent control
Outline: as §2

[26] = tested on: velvetleaf; test: Preemergent control of plant species; format: in vivo, Abutilon theophrasti; conditions: Abutilon theophrasti, pre-emergence, 336 h; 0.25 lb/acre; read-out: percent preemergent control
Outline: as §2

[27] = tested on: corn; test: Preemergent control of plant species; format: in vivo, Zea mays; conditions: Zea mays, pre-emergence, 336 h; 0.25 lb/acre; read-out: percent preemergent control
Outline: as §2

[28] = tested on: rice; test: Preemergent control of plant species; format: in vivo, Oryza sativa; conditions: Oryza sativa, pre-emergence, 336 h; 0.25 lb/acre; read-out: percent preemergent control
Outline: as §2

[29] = tested on: sorghum; test: Preemergent control of plant species; format: in vivo, Sorghum vulgare; conditions: Sorghum, pre-emergence, 336 h; 0.25 lb/acre; read-out: percent preemergent control
Outline: as §2

[30] = tested on: wheat; test: Preemergent control of plant species; format: in vivo, Triticum aestivum; conditions: Triticum aestivum, pre-emergence, 336 h; 0.25 lb/acre; read-out: percent preemergent control
Outline: as §2

[31] = tested on: barnyardgrass; test: Preemergent control of plant species; format: in vivo, Echinochloa crusgalli; conditions: Echinochloa crus-galli, pre-emergence, 336 h; 0.25 lb/acre; read-out: percent preemergent control
Outline: as §2

[32] = tested on: johnson grass; test: Preemergent control of plant species; format: in vivo, Sorghum halepense; conditions: Sorghum halepense, pre-emergence, 336 h; 0.25 lb/acre; read-out: percent preemergent control
Outline: as §2

[33] = tested on: wild oats; test: Preemergent control of plant species; format: in vivo; conditions: Avena fatua, pre-emergence, 336 h; 0.25 lb/acre; read-out: percent preemergent control
Outline: as §2

[34] = tested on: yellow foxtail; test: Preemergent control of plant species; format: in vivo, Setaria lutescens; conditions: Setaria, pre-emergence, 336 h; 0.25 lb/acre; read-out: percent preemergent control
Outline: as §2

[35] = tested on: yellow nutsedge; test: Preemergent control of plant species; format: in vivo, Cyperus esculentus; conditions: Cyperus, pre-emergence, 336 h; 0.25 lb/acre; read-out: percent preemergent control
Outline: as §2

Structure (SMILES)	plant injury at 500 ppm [1]	plant injury at 500 ppm [2]	plant injury at 500 ppm [3]	plant injury at 500 ppm [4]	pest or weed control at 500 ppm [5]	pest or weed control at 500 ppm [6]	pest or weed control at 500 ppm [7]	pest or weed control at 500 ppm [8]	pest or weed control at 500 ppm [9]	plant injury at 500 ppm [10]	plant injury at 500 ppm [11]	plant injury at 500 ppm [12]	plant injury at 500 ppm [13]	pest or weed control at 500 ppm [14]	pest or weed control at 500 ppm [15]	pest or weed control at 500 ppm [16]	pest or weed control at 500 ppm [17]	pest or weed control at 500 ppm [18]	pest or weed control at 500 ppm [19]	further results
COC(=O)c1c(NS(=O)(=O)c2nc3nc(C)ccn3n2)c(C)nn1C [Compound 248]	50%	100%	40%	75%	0%	0%	0%	0%	100%	0%	50%	80%	0%	0%	0%	0%	0%	0%	0%	–
Cc1ccn2nc(S(=O)(=O)N(c3c(F)cccc3F)S(=O)(=O)c3ccccc3)nc2n1 [Compound 298]	35%	85%	0%	80%	50%	50%	50%	100%	80%	0%	40%	40%	0%	65%	25%	75%	50%	–	0%	plant injury at 280.212 g/ha [20]: 100%; plant injury at 280.212 g/ha [21]: 100%; plant injury at 280.212 g/ha [22]: 0%; plant injury at 280.212 g/ha [23]: 100%; pest or weed control at 280.212 g/ha [24]: 100%; pest or weed control at 280.212 g/ha [25]: 70%; pest or weed control at 280.212 g/ha [26]: 100%; plant injury at 280.212 g/ha [27]: 40%; plant injury at 280.212 g/ha [28]: 95%; plant injury at 280.212 g/ha [29]: 95%; plant injury at 280.212 g/ha [30]: 50%; pest or weed control at 280.212 g/ha [31]: 100%; pest or weed control at 280.212 g/ha [32]: 95%; pest or weed control at 280.212 g/ha [33]: 50%; pest or weed control at 280.212 g/ha [34]: 100%; pest or weed control at 280.212 g/ha [35]: 100%
Cc1cc(C)n2nc(S(=O)(=O)Nc3c(C)ccc(Cl)c3Cl)nc2n1 [Compound 74]	70%	100%	80%	100%	100%	90%	80%	70%	100%	0%	0%	80%	0%	70%	0%	60%	50%	0%	95%	–
Cc1ccn2nc(S(=O)(=O)Nc3c(Cl)ccc4ccccc34)nc2n1 [Compound 244]	100%	100%	45%	100%	100%	100%	90%	100%	100%	40%	40%	90%	20%	40%	40%	95%	80%	0%	90%	–
Cc1ccn2nc(S(=O)(=O)Nc3c(F)c(F)cc(F)c3F)nc2n1 [Compound 163]	0%	70%	0%	0%	40%	70%	0%	90%	20%	0%	0%	0%	0%	0%	0%	50%	0%	0%	0%	–
Cc1nc2nc(S(=O)(=O)Nc3ccccc3[N+](=O)[O-])nn2c2c1CCC2 [Compound 105]	35%	40%	95%	90%	100%	60%	70%	60%	0%	80%	20%	0%	0%	20%	0%	–	0%	0%	0%	–
